Assay results published in PubChem BioAssay AID504857 (Southern Research Specialized Biocontainment Screening …, 2011).
Activity calls are given as the source filed them. How the calls were made is not given here.

Key:
[1] = M. tuberculosis growth inhibition, dose response, H37Rv, 7H9 media, purified and synthesized compounds, set 4 (AID 504857); conditions: Mycobacterium tuberculosis H37Rv growth in 7H9 media; at 100 µM (top of the series)
[2] = test system: Mycobacterium tuberculosis H37Rv growth in 7H9 media; test: as above; conditions: for IC50: measured here: M. tuberculosis growth IC50

In the case of `Cc1cc(=O)[nH]c(=S)[nH]1`, the growth inhibition [1] is reported as -3.77% (inactive).

`CCOc1ccc(-c2cc(C)[n+](CCc3ccc(OC)c(OC)c3)c(-c3ccc(OCC)cc3)c2)cc1` gave an IC90 [2] of 1110 nM and an IC50 [2] of 770 nM.

With `CCC(Sc1nc2ccccc2c(=O)[nH]1)C(=O)NC1CCCCC1` (stereo not drawn) the growth inhibition [1] was 0.65% (inactive).

`Cc1[nH]c2ccccc2c1C(=O)COC(=O)c1ccc([N+](=O)[O-])s1` showed an IC90 [2] of 2930 nM and an IC50 [2] of 1690 nM.

In the case of `Cc1ccc(NC(=O)COC(=O)CCc2c[nH]c3ccccc23)cc1[N+](=O)[O-]`, the IC90 [2] is reported as 4680 nM and the IC50 [2] is reported as 2550 nM.

With `Cc1c[nH]c(=S)[nH]c1=O` the growth inhibition [1] was 2.29% (inactive).

With `O=C(CSc1nc2ccccc2c(=O)[nH]1)NCc1ccc(Cl)cc1` the IC90 [2] was 1270 nM and the IC50 [2] was 760 nM.

Molecule `CC[N+](C)(CC)CCCCOc1ccc2c(c1)C(=O)c1cc(OCCCC[N+](C)(CC)CC)ccc1-2` has an IC90 [2] of 3300 nM and an IC50 [2] of 2470 nM.

With `O=c1[nH]c(SCc2ccccc2Cl)nc2c1CCCC2` the growth inhibition [1] was 9.36% (inactive).

In the case of `CCSc1nc2ccccc2c(=O)[nH]1`, the growth inhibition [1] is reported as 2.57% (inactive).

In the case of `Cc1nc(SCC(=O)NCCC(C)C)[nH]c(=O)c1C`, the IC90 [2] is reported as 9970 nM and the IC50 [2] is reported as 5780 nM.

For `CN1CCC(NC(=O)CSc2nc3ccccc3c(=O)[nH]2)CC1`, the growth inhibition [1] was 4.15% (inactive).

For `CC(Sc1nc2ccccc2c(=O)[nH]1)C(=O)NC1CCCCC1` (stereo not drawn), the growth inhibition [1] was 3.48% (inactive).

Work on `Cc1nc(SCC(=O)NC2CCCC2)[nH]c(=O)c1C` yielded an IC90 [2] of 10900 nM and an IC50 [2] of 6250 nM.

With `CC(C)CCNC(=O)CSc1nc2c(c(=O)[nH]1)CCC2` the IC90 [2] was 1850 nM and the IC50 [2] was 1140 nM.

With `O=C(CSc1nccc(=O)[nH]1)NC1CCCCC1` the growth inhibition [1] was 6.38% (inactive).

In the case of `Cc1ccc(NC(=O)CSc2nc3ccccc3c(=O)[nH]2)cc1Cl`, the growth inhibition [1] is reported as 0.04% (inactive).

For `CC1CCN(C(=O)CSc2nc3ccccc3c(=O)[nH]2)CC1`, the growth inhibition [1] was 2.61% (inactive).

For `Cc1cnc(SCC(=O)NC2CCCCC2)[nH]c1=O`, the growth inhibition [1] was 4.36% (inactive).

Work on `O=C(CSc1nc2ccccc2c(=O)[nH]1)NC1CCCC1` yielded an IC90 [2] of 710 nM and an IC50 [2] of 240 nM.

In the case of `Nc1cc(=O)[nH]c(SCC(=O)NC2CCCCC2)n1`, the growth inhibition [1] is reported as -0.79% (inactive).

Molecule `CC(C)CCNC(=O)CSc1nc2ccccc2c(=O)[nH]1` has an IC90 [2] of 20 nM and an IC50 [2] of less than 10 nM.

With `Cc1cc(Br)ccc1NC(=O)c1cnc(N2CCN(c3ccccn3)CC2)c2ccccc12` the IC90 [2] was 35000 nM and the IC50 [2] was 1030 nM.

Molecule `O=C(CSc1nc2ccccc2c(=O)[nH]1)NC1CCCCC1` has an IC90 [2] of 400 nM and an IC50 [2] of 250 nM.

In the case of `CC(C)NC(=O)CSc1nc2ccccc2c(=O)[nH]1`, the IC90 [2] is reported as 15200 nM and the IC50 [2] is reported as 10300 nM.

With `Cc1nc(SCC(N)=O)[nH]c(=O)c1C` the growth inhibition [1] was 3.13% (inactive).

In the case of `CCC(Sc1nc2ccccc2c(=O)[nH]1)C(=O)Nc1cccc(OC)c1` (stereo not drawn), the growth inhibition [1] is reported as 18.9% (inactive).

With `NC(=O)CSc1nc2ccccc2c(=O)[nH]1` the growth inhibition [1] was 5.87% (inactive).

In the case of `O=C(CSc1ncccn1)NC1CCCCC1`, the growth inhibition [1] is reported as -3.06% (inactive).

Molecule `O=C(CSc1nc2c(c(=O)[nH]1)CCCC2)NC1CCCCC1` has an IC90 [2] of less than 10 nM and an IC50 [2] of less than 10 nM.

With `Cc1cc(C)n2nc(N)c(N=Nc3ccccc3)c2n1` the IC90 [2] was 6310 nM and the IC50 [2] was 4720 nM.

For `COC(=O)C(Nc1nc(SCC(=O)NC2CCCCC2)nc2ccccc12)c1ccccc1` (stereo not drawn), the growth inhibition [1] was 0.63% (inactive).

For `Cc1nc(SCc2ccccc2Cl)[nH]c(=O)c1C`, the growth inhibition [1] was -1.2% (inactive).

Molecule `CC1CCN(C(=O)C2CCN(c3nnc(-n4cccc4)s3)CC2)CC1` has an IC90 [2] of 4870 nM and an IC50 [2] of 2790 nM.

For `COc1ccc(NC(=O)CSc2nc3ccccc3c(=O)[nH]2)cc1`, the growth inhibition [1] was 10.6% (inactive).

For `CN(C)C(=O)CSc1nc2ccccc2c(=O)[nH]1`, the growth inhibition [1] was 10.3% (inactive).

For `c1ccc(/N=C2\N=C(Nc3ccccn3)c3ccccc32)nc1`, the IC90 [2] was 1360 nM and the IC50 [2] was 1030 nM.

With `O=c1[nH]c(=S)[nH]c2ccccc12` the growth inhibition [1] was -2.47% (inactive).

In the case of `Cc1cc(=O)[nH]c(SCC(=O)NC2CCCCC2)n1`, the growth inhibition [1] is reported as -5.77% (inactive).

For `CN(C(=O)CSc1nc2ccccc2c(=O)[nH]1)C1CCCCC1`, the growth inhibition [1] was 4.85% (inactive).

In the case of `Cc1nc(SCC(=O)N(C)c2ccccc2)[nH]c(=O)c1C`, the growth inhibition [1] is reported as -2.18% (inactive).

With `CCOC1OC(=O)C(Cl)=C1Nc1ccccc1C` (stereo not drawn) the IC90 [2] was 9910 nM and the IC50 [2] was 3780 nM.

For `Cc1[nH]c(=S)[nH]c(=O)c1C`, the growth inhibition [1] was 3.68% (inactive).

`Cc1cccc(-c2oc3ccc(-c4ccc5c(c4)OCO5)cc3c2C#Cc2cncn2C)c1` showed an IC90 [2] of 3130 nM and an IC50 [2] of 2600 nM.

In the case of `O=C(CSc1nc2c(c(=O)[nH]1)CCC2)NC1CCCCC1`, the IC90 [2] is reported as less than 10 nM and the IC50 [2] is reported as less than 10 nM.

For `COC(=O)c1ccc(CNc2c(N3CCCC3)c(=O)c2=O)cc1`, the growth inhibition [1] was 1.55% (inactive).

In the case of `O=C(CSc1nc2ccccc2c(=O)[nH]1)N1CCOCC1`, the growth inhibition [1] is reported as 6.76% (inactive).

`CNC(=O)CSc1nc2ccccc2c(=O)[nH]1` showed an IC90 [2] of 89800 nM and an IC50 [2] of 54800 nM.

Molecule `COC(=O)C(C)Oc1ccc(Cc2ncc(C(F)(F)F)cc2Cl)cc1` (stereo not drawn) has an IC90 [2] of 7110 nM and an IC50 [2] of 4400 nM.

Work on `Nc1c(C(=O)NC2CCCCC2)nsc1C(=O)OCC(=O)NC1CCCCC1` yielded an IC50 [2] of 4420 nM.

With `Cn1c(SCC(=O)NC2CCCCC2)nc2ccccc2c1=O` the growth inhibition [1] was 5.15% (inactive).

In the case of `O=C(CSc1ccccn1)NC1CCCCC1`, the growth inhibition [1] is reported as 5.02% (inactive).

With `CCOC(=O)CSc1nc(C)c(C)c(=O)[nH]1` the growth inhibition [1] was 7.45% (inactive).

With `COc1cccc(NC(=O)CSc2nc3ccccc3c(=O)[nH]2)c1` the growth inhibition [1] was 7.54% (inactive).

For `CCC(Sc1nc2c(c(=O)[nH]1)CCC2)C(=O)Nc1cccc(OC)c1` (stereo not drawn), the growth inhibition [1] was -2.13% (inactive).

Work on `Cc1ccc(C(=O)N/N=C(/CC(=O)c2cccs2)C(F)(F)F)cc1` yielded an IC90 [2] of 2800 nM and an IC50 [2] of 1230 nM.

For `COc1cccc(NC(=O)CSc2nc3c(c(=O)[nH]2)CCC3)c1`, the growth inhibition [1] was -2.55% (inactive).

In the case of `CCSc1nc(C)c(C)c(=O)[nH]1`, the growth inhibition [1] is reported as 1.25% (inactive).

In the case of `Cc1cccc(/C=C/C(=O)c2ccc([N+](=O)[O-])o2)c1`, the IC90 [2] is reported as 1120 nM and the IC50 [2] is reported as 670 nM.
